Results reported in patent EP3693362B1, “PARASITIC PLANT GERMINATION REGULATOR” (National University Corporation Tokai National Higher …, priority 2017, dated 2019).

Experiments:
Assay type in all cases: in vivo
Striga hermonthica = assay: Parasitic plant germination induction test (Striga hermonthica seeds); settings: in the dark for 2 days; for Germination rate 0.1 nM: compound concentration 0.1 nM; for Germination rate 1 nM: compound concentration 1 nM; for Germination rate 10 nM: compound concentration 10 nM
Description: (§1) A parasitic plant germination induction test was conducted using the compounds synthesized in Example 1 as test compounds. The seeds of a parasitic plant (Striga hermonthica, Orobanche minor, or Phelipanche aegyptiaca) were suspended in sterilized ultrapure water, and this was dispensed in an amount of 100 µL each (containing about 20 seeds) into a 96-well plate. The test compounds or control compounds (Comparison Compound 1 or synthetic Strigolactone (GR^24: Comparison Compound 2)) dissolved in DMSO were individually added thereto to a final concentration of these compounds of 10 nM to 1 fM (1 × 10^-8 to 1 × 10^-15 M), and allowed to stand in the dark for 2 days. The presence or absence of germination was observed using a microscope, and the germination rate (i.e., number of germinated seeds/total number of seeds) was measured. The higher the germination rate in the parasitic plant germination induction test, or the higher the germination rate at lower concentration, the higher the Striga germination inducing activity.
(§2) In Tables 1 to 6, the concentrations (10 nM, 1 nM, and 0.1 nM) represent compound concentrations. In Tables 1-6, the evaluation criteria for the compounds are as follows: • ++: germination rate of 20% or more • +: germination rate of 5% or more and less than 20% • -: germination rate of less than 5% Table 1

Orobanche minor = assay: Parasitic plant germination induction test (Orobanche minor seeds); settings: in the dark for 2 days
Description: as §1, §2

Phelipanche aegyptiaca = assay: Parasitic plant germination induction test (Phelipanche aegyptiaca seeds); settings: in the dark for 2 days
Description: as §1, §2

| Compound | Germination rate 0.1 nM (Striga hermonthica) | Germination rate 1 nM (Striga hermonthica) | Germination rate 10 nM (Striga hermonthica) | Germination rate 0.1 nM (Orobanche minor; compound concentration 0.1 nM) | Germination rate 1 nM (Orobanche minor; compound concentration 1 nM) | Germination rate 10 nM (Orobanche minor; compound concentration 10 nM) | Germination rate 1 nM (Phelipanche aegyptiaca; compound concentration 1 nM) | Germination rate 10 nM (Phelipanche aegyptiaca; compound concentration 10 nM) |
| --- | --- | --- | --- | --- | --- | --- | --- | --- |
| CCCCCOc1ccc(S(=O)(=O)N2CCN(C(=O)OC3C=C(C)C(=O)O3)CC2)cc1 (stereo not shown) [Compound 5] | ++ (germination rate of 20% or more) | ++ (germination rate of 20% or more) | ++ (germination rate of 20% or more) | – | – | – | – | – |
| CCOc1ccc(S(=O)(=O)N2CCN(C(=O)OC3C=CC(=O)O3)CC2)cc1 (stereo not shown) [Compound 11] | + (germination rate of 5% or more and less than 20%) | ++ (germination rate of 20% or more) | ++ (germination rate of 20% or more) | – | – | – | – | – |
| COc1ccc(S(=O)(=O)N2CCN(C(=O)OC3C=C(C)C(=O)O3)CC2)cc1 (stereo not shown) [Compound 2] | ++ (germination rate of 20% or more) | ++ (germination rate of 20% or more) | ++ (germination rate of 20% or more) | – | – | – | – | – |
| O=C1C=CC(OC(=O)N2CCN(S(=O)(=O)c3ccc([N+](=O)[O-])cc3)CC2)O1 (stereo not shown) [Compound 20] | - (germination rate of less than 5%) | ++ (germination rate of 20% or more) | ++ (germination rate of 20% or more) | – | – | – | – | – |
| CCCOc1ccc(S(=O)(=O)N2CCN(C(=O)OC3C=CC(=O)O3)CC2)cc1 (stereo not shown) [Compound 12] | + (germination rate of 5% or more and less than 20%) | ++ (germination rate of 20% or more) | ++ (germination rate of 20% or more) | – | – | – | – | – |
| CCc1ccc(S(=O)(=O)N2CCN(C(=O)OC3C=CC(=O)O3)CC2)cc1 (stereo not shown) [Compound 16] | – | ++ (germination rate of 20% or more) | ++ (germination rate of 20% or more) | – | – | – | – | – |
| GR^24 [Comparison Compound 2, reference compound] | - (germination rate of less than 5%) | ++ (germination rate of 20% or more) | ++ (germination rate of 20% or more) | - (germination rate of less than 5%) | + (germination rate of 5% or more and less than 20%) | ++ (germination rate of 20% or more) | - (germination rate of less than 5%) | ++ (germination rate of 20% or more) |
| Cc1ccc(S(=O)(=O)N2CCN(C(=O)OC3C=CC(=O)O3)CC2)cc1 (stereo not shown) [Compound 15] | - (germination rate of less than 5%) | + (germination rate of 5% or more and less than 20%) | ++ (germination rate of 20% or more) | – | – | – | – | – |
| CCCCCOc1ccc(S(=O)(=O)N2CCN(C(=O)OC3C=CC(=O)O3)CC2)cc1 (stereo not shown) [Compound 14] | - (germination rate of less than 5%) | ++ (germination rate of 20% or more) | ++ (germination rate of 20% or more) | – | – | – | – | – |
| CCCCCc1ccc(S(=O)(=O)N2CCN(C(=O)OC3C=CC(=O)O3)CC2)cc1 (stereo not shown) [Compound 17] | + (germination rate of 5% or more and less than 20%) | + (germination rate of 5% or more and less than 20%) | ++ (germination rate of 20% or more) | – | – | – | – | – |
| CCCCCc1ccc(S(=O)(=O)N2CCN(C(=O)OC3C=C(C)C(=O)O3)CC2)cc1 (stereo not shown) [Compound 7] | ++ (germination rate of 20% or more) | ++ (germination rate of 20% or more) | ++ (germination rate of 20% or more) | – | – | – | – | – |
| O=C1C=CC(OC(=O)N2CCN(S(=O)(=O)c3ccc(C(F)(F)F)cc3)CC2)O1 (stereo not shown) [Compound 18] | - (germination rate of less than 5%) | + (germination rate of 5% or more and less than 20%) | ++ (germination rate of 20% or more) | – | – | – | – | – |
| CC1=CC(OC(=O)N2CCN(S(=O)(=O)c3ccc(C(F)(F)F)cc3)CC2)OC1=O (stereo not shown) [Compound 8] | ++ (germination rate of 20% or more) | ++ (germination rate of 20% or more) | ++ (germination rate of 20% or more) | – | – | – | – | – |
| O=C1C=CC(OC(=O)N2CCN(S(=O)(=O)c3cccc(Br)c3)CC2)O1 (stereo not shown) [Compound 19] | - (germination rate of less than 5%) | ++ (germination rate of 20% or more) | ++ (germination rate of 20% or more) | – | – | – | – | – |
| CC1=CC(OC(=O)N2CCN(S(=O)(=O)c3cccc(Br)c3)CC2)OC1=O (stereo not shown) [Compound 9] | ++ (germination rate of 20% or more) | ++ (germination rate of 20% or more) | ++ (germination rate of 20% or more) | – | – | – | – | – |
| COc1ccc(S(=O)(=O)N2CCN(C(=O)OC3C=CC(=O)O3)CC2)cc1 (stereo not shown) [Compound 10] | - (germination rate of less than 5%) | ++ (germination rate of 20% or more) | ++ (germination rate of 20% or more) | – | – | – | – | – |
| CCc1ccc(S(=O)(=O)N2CCN(C(=O)OC3C=C(C)C(=O)O3)CC2)cc1 (stereo not shown) [Compound 6] | ++ (germination rate of 20% or more) | ++ (germination rate of 20% or more) | ++ (germination rate of 20% or more) | – | – | – | – | – |
| CC(C)(C)c1ccccc1OCC1CN(C(=O)OC2C=CC(=O)O2)CCO1 (stereo not shown) [Reference Compound 30] | - (germination rate of less than 5%) | ++ (germination rate of 20% or more) | ++ (germination rate of 20% or more) | – | – | – | – | – |
